Results taken from patent US12077503B2, “Substituted cyclic amides and their use as herbicides” (FMC CORPORATION, priority 2015, dated 2024).

How the values were obtained:
Format in all cases: in vivo
[1] = tested on: Galium (catchweed bedstraw, Galium aparine); test: Test A postemergence; conditions: Galium, post-emergence, 240 h, 125 g ai/ha, Postemergence; visual injury after approximately 10 d; 0 to 100 scale where 0 is no effect and 100 is complete control; read-out: Plant response rating, Galium
Summary of the method: (§1)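 In a loam soil and sand blend, planted seeds got a preemergence directed soil spray, and young plants at the one- to two-leaf stage, 2–10 cm high, got a postemergence application; ~10 d greenhouse hold; injury rated visually, 0 = none, 100 = complete control.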

[2] = tested on: ryegrass, Italian (Italian ryegrass, Lolium multiflorum); test: Test A postemergence; conditions: Lolium multiflorum, post-emergence, 240 h, 125 g ai/ha, Postemergence; visual injury after approximately 10 d; 0 to 100 scale where 0 is no effect and 100 is complete control; read-out: Plant response rating, Ryegrass, Italian
Summary of the method: as §1

[3] = tested on: blackgrass (Alopecurus myosuroides); test: Test A postemergence; conditions: Alopecurus myosuroides, post-emergence, 240 h, 125 g ai/ha, Postemergence; visual injury after approximately 10 d; 0 to 100 scale where 0 is no effect and 100 is complete control; read-out: Plant response rating, Blackgrass
Summary of the method: as §1

corn (Zea mays) = test: Test A postemergence; conditions: Zea mays, post-emergence, 240 h, 125 g ai/ha, Postemergence; visual injury after approximately 10 d; 0 to 100 scale where 0 is no effect and 100 is complete control
Summary of the method: as §1

Kochia (Kochia scoparia) [4] = test: Test A postemergence; conditions: Bassia scoparia, post-emergence, 240 h, 125 g ai/ha, Postemergence; visual injury after approximately 10 d; 0 to 100 scale where 0 is no effect and 100 is complete control; read-out: Plant response rating, Kochia
Summary of the method: as §1

[5] = tested on: wheat (Triticum aestivum); test: Test A postemergence; conditions: Triticum aestivum, post-emergence, 240 h, 125 g ai/ha, Postemergence; visual injury after approximately 10 d; 0 to 100 scale where 0 is no effect and 100 is complete control; read-out: Plant response rating, Wheat
Summary of the method: as §1

[6] = tested on: giant foxtail (Setaria faberii); test: Test A postemergence; conditions: Setaria faberi, post-emergence, 240 h, 125 g ai/ha, Postemergence; visual injury after approximately 10 d; 0 to 100 scale where 0 is no effect and 100 is complete control; read-out: Plant response rating, Foxtail, Giant
Summary of the method: as §1

[7] = tested on: barnyardgrass (Echinochloa crus-galli); test: Test A postemergence; conditions: Echinochloa crus-galli, post-emergence, 240 h, 125 g ai/ha, Postemergence; visual injury after approximately 10 d; 0 to 100 scale where 0 is no effect and 100 is complete control; read-out: Plant response rating, Barnyardgrass
Summary of the method: as §1

[8] = tested on: pigweed (Amaranthus retroflexus); test: Test A postemergence; conditions: Amaranthus retroflexus, post-emergence, 240 h, 125 g ai/ha, Postemergence; visual injury after approximately 10 d; 0 to 100 scale where 0 is no effect and 100 is complete control; read-out: Plant response rating, Pigweed
Summary of the method: as §1

[9] = tested on: ragweed (common ragweed, Ambrosia elatior); test: Test A postemergence; conditions: Ambrosia artemisiifolia, post-emergence, 240 h, 125 g ai/ha, Postemergence; visual injury after approximately 10 d; 0 to 100 scale where 0 is no effect and 100 is complete control; read-out: Plant response rating, Ragweed
Summary of the method: as §1

[10] = tested on: ducksalad (Heteranthera limosa); test: Test B flooded paddy test; conditions: Heteranthera limosa, Flood, 250 g ai/ha; scale of 0 to 100 where 0 is no effect and 100 is complete control; read-out: Ducksalad plant response rating
Summary of the method: (§2)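 Flooding to 3 cm over soil accompanied treatment, which consisted of adding compound to the standing water around 2-leaf plants; depth was then maintained. Visual assessment versus controls followed at 13 to 15 d (scale 0–100, 0 meaning no effect).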

rice (Oryra sativa) = test: Test B flooded paddy test; conditions: Oryza sativa, Flood, 250 g ai/ha; scale of 0 to 100 where 0 is no effect and 100 is complete control; read-out: Rice plant response rating
Summary of the method: as §2

[11] = tested on: sedge, umbrella (small-flower umbrella sedge, Cyperus difformis); test: Test B flooded paddy test; conditions: Cyperus difformis, Flood, 250 g ai/ha; scale of 0 to 100 where 0 is no effect and 100 is complete control; read-out: Sedge, Umbrella plant response rating
Summary of the method: as §2

[12] = tested on: barnyardgrass (Echinochloa crus-galli); test: Test B flooded paddy test; conditions: Echinochloa crus-galli, Flood, 250 g ai/ha; scale of 0 to 100 where 0 is no effect and 100 is complete control; read-out: Barnyardgrass plant response rating
Summary of the method: as §2

[13] = tested on: ryegrass, Italian (Italian ryegrass, Lolium multiflorum); test: Test A preemergence; conditions: Lolium multiflorum, pre-emergence, 240 h
Summary of the method: as §1

Kochia (Kochia scoparia) [14] = test: Test A preemergence; conditions: Bassia scoparia, pre-emergence, 240 h
Summary of the method: as §1

[15] = tested on: giant foxtail (Setaria faberii); test: Test A preemergence; conditions: Setaria faberi, pre-emergence, 240 h
Summary of the method: as §1

[16] = tested on: barnyardgrass (Echinochloa crus-galli); test: Test A preemergence; conditions: Echinochloa crus-galli, pre-emergence, 240 h
Summary of the method: as §1

[17] = tested on: pigweed (Amaranthus retroflexus); test: Test A preemergence; conditions: Amaranthus retroflexus, pre-emergence, 240 h
[18] = tested on: ragweed (common ragweed, Ambrosia elatior); test: Test A preemergence; conditions: Ambrosia artemisiifolia, pre-emergence, 240 h
Summary of the method: as §1

CCOc1cccc([C@H]2CNC(=O)[C@@H]2C(=O)Nc2ccccc2F)c1 [Compound 949]
pest or weed control at 125 g/ha [1]: 0% | pest or weed control at 125 g/ha [2]: 0% | pest or weed control at 125 g/ha [3]: 0% | Corn plant response rating (crop injury, 0 = no effect, 100 = complete kill) at 125 g/ha (corn (Zea mays)): 0% | pest or weed control at 125 g/ha (Kochia (Kochia scoparia) [4]): 0% | plant injury at 125 g/ha [5]: 0% | pest or weed control at 125 g/ha [6]: 20% | pest or weed control at 125 g/ha [7]: 90% | pest or weed control at 125 g/ha [8]: 0% | pest or weed control at 125 g/ha [9]: 0% | pest or weed control at 250 g/ha [10]: 100% | pest or weed control at 250 g/ha (rice (Oryra sativa)): 15% | pest or weed control at 250 g/ha [11]: 0% | pest or weed control at 250 g/ha [12]: 30% | pest or weed control at 125 g/ha ([13]; 125 g ai/ha, Preemergence, visual injury rating after approximately 10 d, read-out: Ryegrass, Italian plant response rating (0 to 100 scale, 0 is no effect, 100 is complete control)): 0% | pest or weed control at 500 g/ha ([13]; 500 g ai/ha, preemergence, visual injury rating about 10 d after treatment, 0 to 100 scale (0 no effect, 100 complete control), read-out: Ryegrass, Italian plant response rating): 0% | pest or weed control at 125 g/ha (Kochia (Kochia scoparia) [14]; 125 g ai/ha, Preemergence, visual injury rating after approximately 10 d, read-out: Kochia plant response rating (0 to 100 scale, 0 is no effect, 100 is complete control)): 20% | pest or weed control at 500 g/ha (Kochia (Kochia scoparia) [14]; 500 g ai/ha, preemergence, visual injury rating about 10 d after treatment, 0 to 100 scale (0 no effect, 100 complete control), read-out: Kochia plant response rating): 50% | pest or weed control at 125 g/ha ([15]; 125 g ai/ha, Preemergence, visual injury rating after approximately 10 d, read-out: Foxtail, Giant plant response rating (0 to 100 scale, 0 is no effect, 100 is complete control)): 60% | pest or weed control at 500 g/ha ([15]; 500 g ai/ha, preemergence, visual injury rating about 10 d after treatment, 0 to 100 scale (0 no effect, 100 complete control), read-out: Foxtail, Giant plant response rating): 70% | pest or weed control at 125 g/ha ([16]; 125 g ai/ha, Preemergence, visual injury rating after approximately 10 d, read-out: Barnyardgrass plant response rating (0 to 100 scale, 0 is no effect, 100 is complete control)): 70% | pest or weed control at 500 g/ha ([16]; 500 g ai/ha, preemergence, visual injury rating about 10 d after treatment, 0 to 100 scale (0 no effect, 100 complete control), read-out: Barnyardgrass plant response rating): 100% | pest or weed control at 125 g/ha ([17]; 125 g ai/ha, Preemergence, visual injury rating after approximately 10 d, read-out: Pigweed plant response rating (0 to 100 scale, 0 is no effect, 100 is complete control)): 0% | pest or weed control at 500 g/ha ([17]; 500 g ai/ha, preemergence, visual injury rating about 10 d after treatment, 0 to 100 scale (0 no effect, 100 complete control), read-out: Pigweed plant response rating): 0% | pest or weed control at 125 g/ha ([18]; 125 g ai/ha, Preemergence, visual injury rating after approximately 10 d, read-out: Ragweed plant response rating (0 to 100 scale, 0 is no effect, 100 is complete control)): 0% | pest or weed control at 500 g/ha ([18]; 500 g ai/ha, preemergence, visual injury rating about 10 d after treatment, 0 to 100 scale (0 no effect, 100 complete control), read-out: Ragweed plant response rating): 0%
